In brackets after ≈: the same amount, converted by molar mass. Entries after “also recorded” stand apart in the source; their conditions may differ. Where two headings read alike, the source gives them in different places.

The nature of assay [1]: topical treatment of nail infections. It counts as in vivo, human. The settings on record: non-synergistic composition, twice daily. From the text: The participating subjects in the present study were instructed to apply twice daily the composition containing phenyl 2-acetoxyethanoic acid or diphenyl 2-acetoxyethanoic acid with or without clotrimazole as an additional antimicrobial agent.
In order to determine the antimicrobial effect of an aryl 2-acetoxyethanoicacid, a standard test method of Minimum Inhibitory Concentration (MIC) against the growth of 10 bacteria was used. To determine a prophylactic effect against the development of, as well as a topical effect in the treatment of, body foul door, eleven human subjects participated in this study. […] Scientific and test results are overviewed as follows.

Assay [2] deals with Brevibacterium epidermis. As to the kind of experiment: MIC Agar Dilution Test, Brevibacterium epidermis. It counts as cell-based. Conditions: B. epidermis. The text has this:
(§1) The following strains of microorganisms were used in Minimum Inhibitory Concentration (MIC) tests for phenyl 2-acetoxyethanoic acid in this example and for benzoyl peroxide, chlorhexidine gluconate and triclosan in the following examples. In total, five strains were used for S. aureus, five strains were used for S. epidermidis, two strains were used for M. sedentarius, three strains were used for M. luteus, two strains were used for B. epidermis, three strains were used for C. minutissium, one strain was used for S. marcescens, three strains were used for P. aeruginosa, four strains were used for E. coli, and thirty-two strains were used for P. acnes.
(§2) Antimicrobial effects were determined based on MIC Agar Dilution Test utilizing Trypticase Soy Agar II (BBL) incorporation plates with and without 10% intralipid (Kabi Pharmacia Inc.). Initially, phenyl 2-acetoxyethanoic acid was prepared as a 2 mg/ml (0.2%) solution in water. This solution with serial dilution was incorporated into the test agar plates. The MIC test gave similar results when the same species but a different strain was used.
(§3) Under the same test conditions described in Example 1, benzoyl peroxide was prepared as a 2.5 mg/ml (0.25%) solution in water. This solution with serial dilution was incorporated into the test agar plates. Typical test results are shown as follows.
(§4) Under the same test conditions described in Example 1, chlorhexidine gluconate was prepared as a 2 mg/ml (0.2%) solution in water. This solution with serial dilution was incorporated into the test agar plates. Typical test results are shown as follows.
(§5) Under the same test conditions described in Example 1, triclosan was prepared as a 10 mg/ml (1%) solution in water. This solution with serial dilution was incorporated into the test agar plates. Typical test results are shown as follows.
(§6) Ten different species of bacteria were used in Minimum Inhibitory Concentration (MIC) tests. The bacteria include S. aureus, S. epidermidis,M. sedentarius, M. luteus, B. epidermis, C. minutissium, S. marcescens, P. aeruginosa, E. coli, and P. acnes. In addition various sources and strains of these bacteria were also included in the tests, and up to 32 different strains of P. acnes were used.
(§7) The test substance selected from phenyl 2-acetoxyethanoic acid, benzoyl peroxide, chlorhexidine gluconate and triclosan was dissolved in water, and the solution with serial dilution was incorporated into the test agar plates. The plates containing different concentrations of test substance were inoculated with a strain of bacterium. MIC is defined as the lowest concentration of the test substance in the plate in which there is no growth of the microorganism.
Background: In agar dilution, organisms are placed on agar that contains the substance at set levels.

Assay [3] concerns Corynebacterium minutissium. Kind of assay: MIC Agar Dilution Test, Corynebacterium minutissium. It counts as cell-based. The settings on record: C. minutissium.
Description: as §1, §2, §3, §4, §5, §6, §7

The nature of assay [4]: prevention and treatment of foot malodor. It counts as in vivo, human. The settings on record: 1% in talc powder. How it is done:
A typical test for prophylactic effect in preventing the development of, as well as treatment of, foot malodor was carried out as follows. A test composition in powder form was prepared by mixing 1 g of finely powdered phenyl 2-acetoxyethanoic acid with 99 g of talc powder. The talc powder alone was used as a control vehicle.
A human subject had persistent foot malodor all year round. […] On the first morning, the subject was instructed to spread the test composition lightly on the left foot and also inside the hose. The control vehicle was used on the right foot and inside the hose. […] The subject was then instructed to apply the test composition on both feet the second morning.
A total of six subjects (three females; three males) participated in several studies.
A test composition containing 1% phenyl 2-acetoxyethanoic acid in powder form was prepared by mixing thoroughly 1 g of finely powdered compound with 99 g of talc powder. The talc powder alone was used as a control vehicle. The test composition and the control vehicle were packaged in one-ounce powder containers. The participating subjects were instructed to lightly spread the test composition on the bottom of the left foot and inside the hose or sock on the first morning.
The criteria for ineffectiveness or effectiveness of the test composition were based on presence or absence of malodor as detected by olfactory sense of smell. Both feet were monitored by the subject and at least one other person in the evening.
The subjects were then instructed to apply the test composition on both feet the next morning. […] The same topical applications were continued by all the participants for several days to confirm the above results.

For assay [5], the system named is Propionibacterium acnes. Kind of assay: MIC Agar Dilution Test, Propionibacterium acnes. It counts as cell-based. The settings on record: for MIC: Cutibacterium acnes.
Description: as §1, §2, §3, §4, §5, §6, §7

Assay [6] is described as follows: reversal of corticosteroid unresponsiveness in psoriasis. It counts as in vivo, human. The settings on record: added once daily to corticosteroid twice daily; seven patients. How it is done:
To determine the therapeutic responsive effect of an aryl 2-acetoxyethanoicacid against psoriasis seven patient participated in this study. A test composition was prepared by dissolving 1 g phenyl 2-acetoxyethanoic acid or diphenyl 2-acetoxyethanoic acid in 2 ml ethanol. The solution thus obtained was mixed with 60 g petrolatum and 37 g mineral oil. The anhydrous ointment thus formulated was packaged in one-ounce jars.
When the drug unresponsiveness to a corticosteroid occurred, the participating patients were instructed to apply in addition the test composition once daily to the lesions on the left side of the body only. Topical applications of the corticosteroid were continued twice daily to both sides of the body. […] While psoriatic lesions on the right side of the body remained unresponsive to the topical corticosteroid, the lesions on the left side started to clear after 3 to 4 weeks of additional topical application with the composition containing an aryl 2-acetoxyethanoic acid.
At this time the patients were instructed to shift the additional topical application to the lesions on the right side instead of the left side of the body. The psoriatic lesions on the right side of the body began to clear after 3 to 4 weeks of additional topical application with the composition containing aryl 2-acetoxyethanoic acid.

Assay [7] in a line: axillary antiodor effectiveness (treatment). It counts as in vivo, human. The settings on record: 0.5%. The text has this: In another study the subjects were instructed not to take a shower in the morning. After the foul odor developed in both axillae, the subjects were instructed to apply the test composition containing 0.5% phenyl 2-acetoxyethanoic acid or diphenyl 2-acetoxyethanoic acid on the left underarm area and the control vehicle on the right underarm area. Topical applications were made once daily for several days.
Usually the left underarm ceased emanating any detectable foul odor after 1 day of topical use. The subjects were instructed at this time to apply the test composition containing 0.5% phenyl 2-acetoxyethanoic acid or diphenyl 2-acetoxyethanoic acid on the right underarm area also. Topical applications were made once daily for several days. The right axilla ceased to emanate any detectable foul odor after 1 to 2 days of topical use.

Where [8] appears, read: 10% intralipid, read-out: MIC Lipid.
Setting [9] is: no lipid, read-out: MIC No Lipid.

As for `CC(=O)OC(C(=O)O)c1ccccc1` (stereo not drawn) [phenyl 2-acetoxyethanoic acid], the “disappearance of nail infections” value in assay [1] was “usually disappeared within one to several months”. For the same compound, the MIC worked out at 1000 µg/mL (≈ 5150 µM) in assay [2] (setting [8]); 1000 µg/mL (≈ 5150 µM) in assay [2] (setting [9]); 500 µg/mL (≈ 2570 µM) in assay [3] (setting [8]); 500 µg/mL (≈ 2570 µM) in assay [3] (setting [9]); 250 µg/mL (≈ 1290 µM) in assay [5] (P. acnes, 10% intralipid, read-out: MIC Lipid); 250 µg/mL (≈ 1290 µM) in assay [5] (P. acnes, no lipid, read-out: MIC No Lipid). Moreover, the MIC is 250 µg/mL in assay [5] (even in the presence of 10% lipid materials, read-out: concentration specifically effective against the growth of P. acnes) and 250 µg/mL in assay [5] (in the presence of 10% lipid materials, read-out: concentration effective against P. acnes). In addition, in assay [4], the “overall effectiveness against foot malodor” value was “topically effective in preventing the development of and in treating foot malodor; also recorded: topically effective in preventing the development of and was also therapeutically effective for topical treatment of foot malodor”. Moreover, the “malodor of both feet at the end of the second day” value in assay [4] (both feet treated) was “produced no detectable malodor”. Besides, in assay [4] (left foot treated, right foot vehicle), the “malodor of left foot by the first evening” value was “produced no detectable malodor in all the participating subjects”. For the same compound, in assay [4] (several days), the “malodor on continued application” value is “complete suppression of malodor was sustained”. Besides, the “inhibitory effect against P. acnes, compared” value in assay [5] (with or without lipid materials, same test conditions as comparators) is “most active and effective compound against P. acnes”. Further, in assay [6], the “onset of improvement of psoriatic lesions, left side” value is reported as “began to improve after one week”. For the same compound, in assay [7] (topical), the “overall axillary antiodor effectiveness” value is on record as “topically effective in eradicating the axillary foul odor”. In addition, the “left axilla on continued use” value in assay [7] (continued, once daily for several days) was “continued to maintain the condition free of any offensive foul odor”. For the same compound, the “time after which left underarm usually ceased emanating any detectable foul odor” value in assay [7] (no-shower study, left side) was 1 days. Further, in assay [7] (no-shower study, once daily), the “intensity of foul odor, left underarm” value was “diminished in intensity of foul odor after one to two days of topical application”. The “time after which left underarm ceased emanating any detectable foul odor” value in assay [7] (Example 6, once daily, one person, left side) was determined as 1 days. In addition, the “time after which right axilla ceased to emanate any detectable foul odor” value in assay [7] (Example 6, right side, formerly vehicle) stood at 1 days.

For the origin of these results see US6046238A, “Method for treating or preventing the spread of acne vulgaris” (TriStrata, Inc., priority 1999, dated 2000).
